From patent publication US20240287028A1, “HERBICIDAL PHENYLURACILS” (BASF SE, priority 2021, published 2024) come the findings set out here.

Each structure is given as a SMILES string.

Holding throughout (assay): greenhouse herbicidal test, post-emergence treatment
Common to all, as to type: in vivo

One test relates to Erigeron canadensis. The conditions noted are these: application rate 4 g/ha, scale 0 to 100. The source says: (§1) The culture containers used were plastic flowerpots containing loamy sand with approximately 3.0% of humus as the substrate. The seeds of the test plants were sown separately for each species.
(§2) For the pre-emergence treatment, the active ingredients, which had been suspended or emulsified in water, were applied directly after sowing by means of finely distributing nozzles. The containers were irrigated gently to promote germination and growth and subsequently covered with transparent plastic hoods until the test plants had rooted. This cover caused uniform germination of the test plants, unless this had been impaired by the active ingredients. For the post-emergence treatment, the test plants were first grown to a height of 3 to 15 cm, depending on the plant habit, and only then treated with the active ingredients which had been suspended or emulsified in water. For this purpose, the test plants were either sown directly and grown in the same containers, or they were first grown separately as seedlings and transplanted into the test containers a few days prior to treatment.
(§3) Depending on the species, the test plants were kept at 10-25° C. or 20-35° C., respectively. The test period extended over 2 to 3 weeks. During this time, the test plants were tended, and their response to the individual treatments was evaluated.
(§4) Evaluation was carried out using a scale from 0 to 100. 100 means no emergence of the test plants, or complete destruction of at least the aerial moieties, and 0 means no damage, or normal course of growth. A good herbicidal activity is given at values of at least 70 and a very good herbicidal activity is given at values of at least 85.

The subject of a further test is Digitaria insularis. Conditions: scale 0 to 100.
From the text: as §1, §2, §3, §4

The next test deals with Setaria faberi. Conditions: scale 0 to 100.
From the text: as §1, §2, §3, §4

With `CCOC(=O)COc1ncccc1Oc1cc(-n2c(=O)cc(C(C)(F)F)n(C)c2=O)c(F)cc1Cl` [Example 1.1, Ethyl 2-[[3-[2-chloro-5-[4-(1,1-difluoroethyl)-3-methyl-2,6-dioxo-pyrimidin-1-yl]-4-fluoro-phenoxy]-2-pyridyl]oxy]acetate], in the test with Erigeron canadensis, the “damages, unwanted plants ERICA” value is listed as 100. For the same compound, the results for the “damages, unwanted plants TRCIN” value in the test on Digitaria insularis (application rate 2 g/ha) and in the test with Digitaria insularis (application rate 4 g/ha) were 95 and 100, respectively. Also, the “damages, unwanted plants SETFA” value is listed as 80 in the test on Setaria faberi (application rate 1 g/ha), 90 in the test on Setaria faberi (application rate 2 g/ha) and 95 with Setaria faberi (application rate 4 g/ha).

In the case of `CCOC(=O)COc1ncccc1Oc1cc(-n2c(=O)cc(C(F)(F)F)n(C)c2=O)c(F)cc1Cl` [cmpd I-2-8], the “damages, unwanted plants ERICA” value with Erigeron canadensis is 65. Moreover, the “damages, unwanted plants TRCIN” value with Digitaria insularis (application rate 2 g/ha) and with Digitaria insularis (application rate 4 g/ha) was 90 throughout. In addition, the “damages, unwanted plants SETFA” value in the test with Setaria faberi (application rate 1 g/ha) came to 70; in the test on Setaria faberi (application rate 2 g/ha), 85; in the test with Setaria faberi (application rate 4 g/ha) it was 90.
